According to US20250230193A1, “CYCLIC COMPOUND HAVING SELECTIVE KRAS INHIBITORY EFFECT ON HRAS AND NRAS” (CHUGAI SEIYAKU KABUSHIKI KAISHA, priority 2022, published 2025):
Where two headings read alike, the source gives them in different places.

Key:
[1] = target: GDP-bound KRAS wild-type protein (Homo sapiens, UniProt P01116); assay: Binding to KRAS by surface plasmon resonance (SPR), Single Cycle Kinetics
[2] = target: GDP-bound HRAS wild-type protein (Homo sapiens, UniProt P01112); assay: Binding to HRAS by surface plasmon resonance (SPR), Single Cycle Kinetics
GDP-bound HRAS wild-type protein, sequence (P01112 whole entry): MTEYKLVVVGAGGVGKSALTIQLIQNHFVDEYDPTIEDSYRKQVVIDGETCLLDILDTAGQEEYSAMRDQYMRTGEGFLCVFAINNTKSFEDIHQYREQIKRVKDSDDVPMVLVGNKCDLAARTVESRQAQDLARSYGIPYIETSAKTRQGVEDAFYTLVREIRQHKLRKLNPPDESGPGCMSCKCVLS

[3] = target: GDP-bound NRAS wild-type protein (Homo sapiens, UniProt P01111); assay: Binding to NRAS by surface plasmon resonance (SPR), Single Cycle Kinetics
GDP-bound NRAS wild-type protein, sequence (P01111 whole entry): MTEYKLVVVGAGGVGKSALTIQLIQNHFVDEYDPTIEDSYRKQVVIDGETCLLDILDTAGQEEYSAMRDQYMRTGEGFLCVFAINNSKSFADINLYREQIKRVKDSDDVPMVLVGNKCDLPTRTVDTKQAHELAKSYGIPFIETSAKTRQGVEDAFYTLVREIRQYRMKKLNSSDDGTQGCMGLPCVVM

[4] = test system: human lung cancer strain NCI-H441
[5] = SPR, GDP-bound wild-type proteins
[6] = SPR, Single Cycle Kinetics; GDP-bound KRAS wild-type protein
[7] = KD ratio, GDP-bound HRAS wild-type vs GDP-bound KRAS wild-type, SPR
[8] = KD ratio, GDP-bound NRAS wild-type vs GDP-bound KRAS wild-type, SPR

Kd [1, 6] [nM] | Compound | HRAS/KRAS (ratio of KD value with respect to GDP-bound HRAS wild-type protein to KD value with respect to KRAS) [2, 5] | NRAS/KRAS (ratio of KD value with respect to GDP-bound NRAS wild-type protein to KD value with respect to KRAS) [3, 5] | HRAS/KRAS (ratio of KD value with respect to HRAS to KD value with respect to KRAS) [2, 7] | NRAS/KRAS (ratio of KD value with respect to NRAS to KD value with respect to KRAS) [3, 8] | also measured
– | CCC[C@H]1C(=O)N[C@@H]([C@@H](C)CC)C(=O)N(C)CC(=O)N(C)[C@H]2C/C=C\CCN(C2=O)[C@@H](Cc2ccc(C(F)(F)F)cc2)C(=O)N(C)CC(=O)N[C@@H](CCc2cc(F)c(C(F)(F)F)c(F)c2)C(=O)N2C[C@H](OCC)C[C@H]2C(=O)NC2(CC(C)(C)C2)C(=O)N(C)[C@@H](CC(C)(C)C)C(=O)N(C)C(C(=O)N(C)C)CC(=O)N1C (stereo partly drawn) [PP2730] | – | – | – | – | Kd ([1]; GDP-bound KRAS wild-type protein, SPR Single Cycle Kinetics, 1:1 binding model): 0.065 nM; HRAS/KRAS (ratio of KD value with respect to GDP-bound HRAS wild-type protein to KD value with respect to KRAS) ([2]; class symbols): A (a compound having 10 or more and less than 20 is denoted as A); NRAS/KRAS (ratio of KD value with respect to GDP-bound NRAS wild-type protein to KD value with respect to KRAS) ([3]; class symbols): A (a compound having 10 or more and less than 20 is denoted as A)
– | CCC[C@H]1C(=O)N[C@@H]([C@@H](C)CC)C(=O)N(C2CC2)CC(=O)N(C)[C@H]2C/C=C\CCN(C2=O)[C@@H](Cc2ccc(C)cc2)C(=O)N(C)CC(=O)N[C@@H](CCc2cc(F)c(C(F)(F)F)c(F)c2)C(=O)N2C[C@H](OCC)C[C@H]2C(=O)N(C)C2(CCC2)C(=O)N(C)[C@@H](C2CCCC2)C(=O)N(C)[C@H](C(=O)N2CCCCC2)CC(=O)N1C [PP3111, (2S,8S,12R,14S,20S,23S,27S,30S,36S,38Z)-20-cyclopentyl-32-cyclopropyl-8-[2-[3,5-difluoro-4-(trifluoromethyl)phenyl]ethyl]-12-ethoxy-4,16,19,22,26,35-hexamethyl-30-[(1S)-1-methylpropyl]-23-(piperidine-1-carbonyl)-27-propyl-2-(p-tolylmethyl)spiro[1,4,7,10,16,19,22,26,29,32,35-undecazatricyclo[34.5.1.0^10,14]dotetracont-38-ene-17,1′-cyclobutane]-3,6,9,15,18,21,25,28,31,34,42-undecone] | A (a compound having 10 or more and less than 20 is denoted as A) | A (a compound having 10 or more and less than 20 is denoted as A) | – | – | Kd ([1]; SPR Single Cycle Kinetics, GDP-bound KRAS wild-type protein, 1:1 binding model): 4.8 nM
0.0088 | CCCN1C(=O)CN(C)C(=O)CN(C)C(=O)[C@H]([C@@H](C)CC)NC(=O)[C@@H]2CCCCOc3ccc(cc3)C[C@H]1C(=O)N(C)CC(=O)N[C@@H](CCc1cc(F)c(C(F)(F)F)c(F)c1)C(=O)N1C[C@H](OCC)C[C@H]1C(=O)NC1(CCCC1)C(=O)N(C)[C@@H](C1CCCC1)C(=O)N(C)[C@H](C(=O)N(C)C)CC(=O)N2C [PP0894] | – | – | C (A compound having a KD ratio of 0.1 or more and less than 3 is denoted as C) | C (A compound having a KD ratio of 0.1 or more and less than 3 is denoted as C) | –
0.19 | CCO[C@@H]1C[C@H]2C(=O)NC3(CCC3)C(=O)N(C)[C@@H](C3CCCC3)C(=O)N(C)[C@H](C(=O)N3CCOCC3)CC(=O)N(C)[C@@H](Cc3ccccc3)C(=O)N[C@@H]([C@@H](C)CC)C(=O)N(C)CC(=O)N(C)[C@H]3CCCCCN(C3=O)[C@@H](Cc3ccc(F)cc3)C(=O)N(C)CC(=O)N[C@@H](CCc3cc(F)c(C(F)(F)F)c(F)c3)C(=O)N2C1 [PP1181] | – | – | B (a compound having 3 or more and less than 10 is denoted as B) | B (a compound having 3 or more and less than 10 is denoted as B) | –
– | CCO[C@@H]1C[C@H]2C(=O)NC3(CC(C)(C)C3)C(=O)N(C)[C@@H](C3CCCC3)C(=O)N(C)[C@H](C(=O)N(C)C)CC(=O)N(C)[C@@H](CC)C(=O)N[C@@H]([C@@H](C)CC)C(=O)N(C)CC(=O)N(C)[C@H]3C/C=C\CCN(C3=O)[C@@H](Cc3ccc(C)cc3)C(=O)N(C)CC(=O)N[C@@H](CCc3ccc(C(F)(F)F)c(Cl)c3)C(=O)N2C1 [PP1878] | – | – | – | – | HRAS/KRAS (ratio of KD value for HRAS to KD value for KRAS) [2, 7]: A (a compound having 10 or more and less than 20 is denoted as A); NRAS/KRAS (ratio of KD value for NRAS to KD value for KRAS) [3, 8]: A (a compound having 10 or more and less than 20 is denoted as A); IC50 [4]: 8.8 nM
– | CCO[C@@H]1C[C@H]2C(=O)NC3(CC(C)(C)C3)C(=O)N(C)[C@@H](C3CCCC3)C(=O)N(C)[C@H](C(=O)N3CCCCC3)CC(=O)N(C)[C@H]3CCCCc4ccc(cc4)C[C@@H](C(=O)N(C)CC(=O)N[C@@H](CCc4ccc(C(F)(F)F)c(OC)c4)C(=O)N2C1)N1CC/C=C\C[C@@H](C1=O)N(C)C(=O)CN(C)C(=O)[C@H]([C@@H](C)CC)NC3=O [PP3093, (1S,7S,11R,13S,19S,22S,26S,29S,35S,37Z)-19-cyclopentyl-11-ethoxy-7-[2-[3-methoxy-4-(trifluoromethyl)phenyl]ethyl]-3,3′,3′,18,21,25,31,34-octamethyl-29-[(1S)-1-methylpropyl]-22-(piperidine-1-carbonyl)spiro[3,6,9,15,18,21,25,28,31,34,41-undecazapentacyclo[24.15.9.2^43,46.1^35,41.0^9,13]tripentaconta-37,43(52),44,46(51)-tetraene-16,1′-cyclobutane]-2,5,8,14,17,20,24,27,30,33,53-undecone] | A (a compound having 10 or more and less than 20 is denoted as A) | A (a compound having 10 or more and less than 20 is denoted as A) | – | – | IC50 ([4]; read-out: NCI-H441 IC50, NCI-H441 cells, 4 days, CellTiter-Glo): 3.2 nM
